Laboratory results published in patent US9850283B2, “Macrocyclic inhibitors of the PD-1/PD-L1 and CD80(B7-1)/PD-L1 protein/protein interactions” (BRISTOL-MYERS SQUIBB COMPANY, priority 2013, dated 2017).
Positions of bridges follow the written chain, without caps; N, C: chain ends. Non-standard residues stand in square brackets, D forms with d. Residues, ends and D or L forms follow the SMILES beside them. Tyr(3,5-Br2) = N[C@@H](Cc1cc(Br)c(O)c(Br)c1)C(=O)O; Phe(4-CH2NH2) = NCc1ccc(C[C@H](N)C(=O)O)cc1; Phe(3-Cl) = N[C@@H](Cc1cccc(Cl)c1)C(=O)O; Phe(4-Cl) = N[C@@H](Cc1ccc(Cl)cc1)C(=O)O; Phe(3-F) = N[C@@H](Cc1cccc(F)c1)C(=O)O; Phe(4-F) = N[C@@H](Cc1ccc(F)cc1)C(=O)O; Bta = N[C@@H](Cc1csc2ccccc12)C(=O)O; NMeF = CN[C@@H](Cc1ccccc1)C(=O)O; NMeNle = CCCC[C@H](NC)C(=O)O; Sar = CNCC(=O)O

Legend:
[1] = target: T1, LK35.2-hPD-L1 cells / PE-labeled PD-1-Ig (Homo sapiens, UniProt Q9NZQ7); assay: LK35.2-hPD-L1 cell binding high-content screening assay; format: cell-based; conditions: cluster symbol; cell line of CBA not given (LK35.2-hPD-L1 or 293T-hPD-L1); read-out: CBA IC50 cluster
T1 construct: expressed in transfected cells; host or cells: LK35.2 mouse B cell line
Summary of the method: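 Compound effect on PD-1/PD-L1 binding is measured by imaging cell-associated phycoerythrin signal. Human PD-1-Ig (PE on Ig tag, 1 nM final) is applied with compound to a murine B cell line overexpressing human PD-L1 for 1 h at 37 °C in serum-containing RPMI.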

[2] = target: T2, Human PD-L1/PD-1 (Homo sapiens, UniProt Q9NZQ7); assay: HTRF PD-1-Ig/PD-L1-His binding assay (human PD-L1); conditions: cluster symbol; read-out: HTRF IC50 cluster
T2 construct: made in house; host or cells: HEK293T
Summary of the method: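 Soluble PD-1-Ig binding to PD-L1-His measured by HTRF in dPBS with 0.1% BSA and 0.05% Tween-20. Detection used europium cryptate anti-Ig antibody (1 nM final) and APC anti-His antibody (20 nM final) added on top of the binding reaction.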

T1 sequence (Q9NZQ7 19-290): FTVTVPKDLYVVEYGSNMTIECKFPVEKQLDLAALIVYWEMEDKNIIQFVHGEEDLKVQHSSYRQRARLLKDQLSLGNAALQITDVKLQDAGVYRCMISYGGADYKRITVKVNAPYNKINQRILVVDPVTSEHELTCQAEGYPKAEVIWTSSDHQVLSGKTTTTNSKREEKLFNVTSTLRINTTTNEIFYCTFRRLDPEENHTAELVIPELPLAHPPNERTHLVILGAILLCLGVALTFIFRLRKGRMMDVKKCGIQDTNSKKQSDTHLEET
T2 sequence (Q9NZQ7 with tags, fused parts or gaps): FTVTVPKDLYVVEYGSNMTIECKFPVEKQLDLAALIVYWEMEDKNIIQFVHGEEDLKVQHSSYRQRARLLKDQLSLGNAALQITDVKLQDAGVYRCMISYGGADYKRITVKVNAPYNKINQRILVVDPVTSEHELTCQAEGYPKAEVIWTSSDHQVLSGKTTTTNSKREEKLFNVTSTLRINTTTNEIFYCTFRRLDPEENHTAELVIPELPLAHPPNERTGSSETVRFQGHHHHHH

Row | SMILES | IC50 [1] | IC50 [2]
1 | CCCC[C@H]1C(=O)N(C)CC(=O)N[C@@H](CC(=O)O)C(=O)N[C@@H](C(C)C)C(=O)N(C)[C@@H](Cc2ccccc2)C(=O)N[C@@H](Cc2cc(Br)c(O)c(Br)c2)C(=O)N(C)CC(=O)N[C@@H](Cc2c[nH]c3ccccc23)C(=O)N[C@@H](Cc2ccc(O)cc2)C(=O)N[C@@H](CC(C)C)C(=O)N[C@H](C(=O)NCC(N)=O)CSCC(=O)N[C@@H](Cc2ccccc2)C(=O)N(C)[C@@H](Cc2ccccc2)C(=O)N1C [Example 3113] ({CH2CO}-F[NMeF][NMeNle][Sar]DV[NMeF][Tyr(3,5-Br2)][Sar]WYLCG-NH2; thioether N-13) | 4.78 to 72.9 nM | 6.76 to 30.3 nM
2 | CCCC[C@H]1C(=O)N(C)CC(=O)N[C@@H](CC(=O)O)C(=O)N[C@@H](C(C)C)C(=O)N(C)[C@@H](Cc2ccccc2)C(=O)N[C@@H](Cc2ccc(O)cc2)C(=O)N(C)CC(=O)N[C@@H](Cc2csc3ccccc23)C(=O)N[C@@H](Cc2ccc(O)cc2)C(=O)N[C@@H](CC(C)C)C(=O)N[C@H](C(=O)NCC(N)=O)CSCC(=O)N[C@@H](Cc2cccc(Cl)c2)C(=O)N(C)[C@@H](Cc2ccccc2)C(=O)N1C [Example 3114] ({CH2CO}-[Phe(3-Cl)][NMeF][NMeNle][Sar]DV[NMeF]Y[Sar][Bta]YLCG-NH2; thioether N-13) | 4.78 to 72.9 nM | 6.76 to 30.3 nM
3 | CCCC[C@H]1C(=O)N(C)CC(=O)N[C@@H](CC(=O)O)C(=O)N[C@@H](C(C)C)C(=O)N(C)[C@@H](Cc2ccccc2)C(=O)N[C@@H](Cc2ccc(O)cc2)C(=O)N(C)CC(=O)N[C@@H](Cc2csc3ccccc23)C(=O)N[C@@H](Cc2ccc(O)cc2)C(=O)N[C@@H](CC(C)C)C(=O)N[C@H](C(=O)NCC(N)=O)CSCC(=O)N[C@@H](Cc2ccc(Cl)cc2)C(=O)N(C)[C@@H](Cc2ccccc2)C(=O)N1C [Example 3115] ({CH2CO}-[Phe(4-Cl)][NMeF][NMeNle][Sar]DV[NMeF]Y[Sar][Bta]YLCG-NH2; thioether N-13) | 4.78 to 72.9 nM | 6.76 to 30.3 nM
4 | CCCC[C@H]1C(=O)N(C)CC(=O)N[C@@H](CC(=O)O)C(=O)N[C@@H](C(C)C)C(=O)N(C)[C@@H](Cc2ccccc2)C(=O)N[C@@H](Cc2ccc(O)cc2)C(=O)N(C)CC(=O)N[C@@H](Cc2csc3ccccc23)C(=O)N[C@@H](Cc2ccc(O)cc2)C(=O)N[C@@H](CC(C)C)C(=O)N[C@H](C(=O)NCC(N)=O)CSCC(=O)N[C@@H](Cc2ccc(F)cc2)C(=O)N(C)[C@@H](Cc2ccccc2)C(=O)N1C [Example 3116] ({CH2CO}-[Phe(4-F)][NMeF][NMeNle][Sar]DV[NMeF]Y[Sar][Bta]YLCG-NH2; thioether N-13) | 0.158 to 4.71 nM | 0.385 to 6.74 nM
5 | CCCC[C@H]1C(=O)N(C)CC(=O)N[C@@H](CC(=O)O)C(=O)N[C@@H](C(C)C)C(=O)N(C)[C@@H](Cc2ccccc2)C(=O)N[C@@H](Cc2ccc(O)cc2)C(=O)N(C)CC(=O)N[C@@H](Cc2csc3ccccc23)C(=O)N[C@@H](Cc2ccc(O)cc2)C(=O)N[C@@H](CC(C)C)C(=O)N[C@H](C(=O)NCC(N)=O)CSCC(=O)N[C@@H](Cc2cccc(F)c2)C(=O)N(C)[C@@H](Cc2ccccc2)C(=O)N1C [Example 3117] ({CH2CO}-[Phe(3-F)][NMeF][NMeNle][Sar]DV[NMeF]Y[Sar][Bta]YLCG-NH2; thioether N-13) | 4.78 to 72.9 nM | 6.76 to 30.3 nM
6 | CCCC[C@H]1C(=O)N(C)CC(=O)N[C@@H](CC(=O)O)C(=O)N[C@@H](C(C)C)C(=O)N(C)[C@@H](Cc2ccccc2)C(=O)N[C@@H](Cc2ccc(CN)cc2)C(=O)N(C)CC(=O)N[C@@H](Cc2csc3ccccc23)C(=O)N[C@@H](Cc2ccc(O)cc2)C(=O)N[C@@H](CC(C)C)C(=O)N[C@H](C(=O)NCC(N)=O)CSCC(=O)N[C@@H](Cc2cccc(Cl)c2)C(=O)N(C)[C@@H](Cc2ccccc2)C(=O)N1C [Example 3118] ({CH2CO}-[Phe(3-Cl)][NMeF][NMeNle][Sar]DV[NMeF][Phe(4-CH2NH2)][Sar][Bta]YLCG-NH2; thioether N-13) | 4.78 to 72.9 nM | 6.76 to 30.3 nM
7 | CCCC[C@H]1C(=O)N(C)CC(=O)N[C@@H](CC(=O)O)C(=O)N[C@@H](C(C)C)C(=O)N(C)[C@@H](Cc2ccccc2)C(=O)N[C@@H](Cc2ccc(CN)cc2)C(=O)N(C)CC(=O)N[C@@H](Cc2csc3ccccc23)C(=O)N[C@@H](Cc2ccc(O)cc2)C(=O)N[C@@H](CC(C)C)C(=O)N[C@H](C(=O)NCC(N)=O)CSCC(=O)N[C@@H](Cc2ccc(Cl)cc2)C(=O)N(C)[C@@H](Cc2ccccc2)C(=O)N1C [Example 3119] ({CH2CO}-[Phe(4-Cl)][NMeF][NMeNle][Sar]DV[NMeF][Phe(4-CH2NH2)][Sar][Bta]YLCG-NH2; thioether N-13) | 4.78 to 72.9 nM | 6.76 to 30.3 nM
8 | CCCC[C@H]1C(=O)N(C)CC(=O)N[C@@H](CC(=O)O)C(=O)N[C@@H](C(C)C)C(=O)N(C)[C@@H](Cc2ccccc2)C(=O)N[C@@H](Cc2ccc(CN)cc2)C(=O)N(C)CC(=O)N[C@@H](Cc2csc3ccccc23)C(=O)N[C@@H](Cc2ccc(O)cc2)C(=O)N[C@@H](CC(C)C)C(=O)N[C@H](C(=O)NCC(N)=O)CSCC(=O)N[C@@H](Cc2ccc(F)cc2)C(=O)N(C)[C@@H](Cc2ccccc2)C(=O)N1C [Example 3120] ({CH2CO}-[Phe(4-F)][NMeF][NMeNle][Sar]DV[NMeF][Phe(4-CH2NH2)][Sar][Bta]YLCG-NH2; thioether N-13) | 0.158 to 4.71 nM | 6.76 to 30.3 nM
9 | CCCC[C@H]1C(=O)N(C)CC(=O)N[C@@H](CC(=O)O)C(=O)N[C@@H](C(C)C)C(=O)N(C)[C@@H](Cc2ccccc2)C(=O)N[C@@H](Cc2ccc(CN)cc2)C(=O)N(C)CC(=O)N[C@@H](Cc2csc3ccccc23)C(=O)N[C@@H](Cc2ccc(O)cc2)C(=O)N[C@@H](CC(C)C)C(=O)N[C@H](C(=O)NCC(N)=O)CSCC(=O)N[C@@H](Cc2cccc(F)c2)C(=O)N(C)[C@@H](Cc2ccccc2)C(=O)N1C [Example 3121] ({CH2CO}-[Phe(3-F)][NMeF][NMeNle][Sar]DV[NMeF][Phe(4-CH2NH2)][Sar][Bta]YLCG-NH2; thioether N-13) | 0.158 to 4.71 nM | 6.76 to 30.3 nM
10 | CCCC[C@H]1C(=O)N(C)CC(=O)N[C@@H](CC(=O)O)C(=O)N[C@@H](C(C)C)C(=O)N(C)[C@@H](Cc2ccccc2)C(=O)N[C@@H](Cc2ccc(CN)cc2)C(=O)N(C)CC(=O)N[C@@H](Cc2c[nH]c3ccccc23)C(=O)N[C@@H](Cc2ccc(O)cc2)C(=O)N[C@@H](CC(C)C)C(=O)N[C@H](C(=O)NCC(N)=O)CSCC(=O)N[C@@H](Cc2cccc(Cl)c2)C(=O)N(C)[C@@H](Cc2ccccc2)C(=O)N1C [Example 3122] ({CH2CO}-[Phe(3-Cl)][NMeF][NMeNle][Sar]DV[NMeF][Phe(4-CH2NH2)][Sar]WYLCG-NH2; thioether N-13) | 4.78 to 72.9 nM | 6.76 to 30.3 nM
11 | CCCC[C@H]1C(=O)N(C)CC(=O)N[C@@H](CC(=O)O)C(=O)N[C@@H](C(C)C)C(=O)N(C)[C@@H](Cc2ccccc2)C(=O)N[C@@H](Cc2ccc(CN)cc2)C(=O)N(C)CC(=O)N[C@@H](Cc2c[nH]c3ccccc23)C(=O)N[C@@H](Cc2ccc(O)cc2)C(=O)N[C@@H](CC(C)C)C(=O)N[C@H](C(=O)NCC(N)=O)CSCC(=O)N[C@@H](Cc2ccc(F)cc2)C(=O)N(C)[C@@H](Cc2ccccc2)C(=O)N1C [Example 3123] ({CH2CO}-[Phe(4-F)][NMeF][NMeNle][Sar]DV[NMeF][Phe(4-CH2NH2)][Sar]WYLCG-NH2; thioether N-13) | 0.158 to 4.71 nM | 6.76 to 30.3 nM
